Test results as given in the supplement of paper PMC5908809.

How the values were obtained:
[1] = tested on: normal NK cells expanded with K562-aAPC; test: percent inhibition of viability; higher = more inhibition; details: 72 h, IL-2 2.5 ng/mL
Description: (§1)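 Drug sensitivity and resistance testing on K562-aAPC-expanded normal NK cells: 5 concentrations (10-fold steps over a 10,000-fold range), 72 h at 37 °C, viability by CellTiter-Glo normalised to DMSO and benzethonium chloride controls; DSS from the fitted curve.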

[2] = tested on: DERL-7 (IL-2 2.5 ng/mL); test: as above; details: 72 h
[3] = tested on: IMC-1 (IL-2 20 ng/mL); test: as above; details: 72 h
[4] = tested on: KAI3 (IL-2 2.5 ng/mL); test: as above; details: 72 h
[5] = tested on: KHYG-1 (IL-2 2.5 ng/mL); test: as above; details: 72 h
[6] = tested on: NK-92 (IL-2 2.5 ng/mL); test: as above; details: 72 h
[7] = tested on: NK-YS (IL-2 2.5 ng/mL); test: as above; details: 72 h
[8] = tested on: NKL (IL-2 2.5 ng/mL); test: as above; details: 72 h
[9] = tested on: SNK-6 (IL-2 2.5 ng/mL); test: as above; details: 72 h
[10] = tested on: YT (IL-2 2.5 ng/mL); test: as above; details: 72 h
[11] = tested on: normal primary NK cells, pool 1 (3 donors) (IL-2 2.5 ng/mL); test: as above; details: 72 h
[12] = tested on: normal primary NK cells, pool 1 (3 donors), resting (IL-2 0 ng/mL); test: as above; details: 72 h
[13] = tested on: normal primary NK cells, pool 2 (3 donors) (IL-2 2.5 ng/mL); test: as above; details: 72 h
[14] = tested on: normal primary NK cells, pool 3 (3 donors) (IL-2 2.5 ng/mL); test: as above; details: 72 h
[15] = tested on: normal NK cells expanded with K562-aAPC; test: drug sensitivity score (DSS) (DSS units); higher = more sensitive; extreme values may be limits of the assay; details: 72 h; IL-2 2.5 ng/mL
Description: as §1

[16] = tested on: DERL-7 (IL-2 2.5 ng/mL); test: as above; details: 72 h
[17] = tested on: IMC-1 (IL-2 20 ng/mL); test: as above; details: 72 h
[18] = tested on: KAI3 (IL-2 2.5 ng/mL); test: as above; details: 72 h
[19] = tested on: KHYG-1 (IL-2 2.5 ng/mL); test: as above; details: 72 h
[20] = tested on: NK-92 (IL-2 2.5 ng/mL); test: as above; details: 72 h
[21] = tested on: NK-YS (IL-2 2.5 ng/mL); test: as above; details: 72 h
[22] = tested on: NKL (IL-2 2.5 ng/mL); test: as above; details: 72 h
[23] = tested on: SNK-6 (IL-2 2.5 ng/mL); test: as above; details: 72 h
[24] = tested on: YT (IL-2 2.5 ng/mL); test: as above; details: 72 h
[25] = tested on: normal primary NK cells, pool 1 (3 donors) (IL-2 2.5 ng/mL); test: as above; details: 72 h
[26] = tested on: normal primary NK cells, pool 1 (3 donors), resting (IL-2 0 ng/mL); test: as above; details: 72 h
[27] = tested on: normal primary NK cells, pool 2 (3 donors) (IL-2 2.5 ng/mL); test: as above; details: 72 h
[28] = tested on: normal primary NK cells, pool 3 (3 donors) (IL-2 2.5 ng/mL); test: as above; details: 72 h

CN1CC[C@H](c2c(O)cc(O)c3c(=O)cc(-c4ccccc4Cl)oc23)[C@H](O)C1 [Alvocidib] (max concentration tested 10000 nM)
percent inhibition of viability ([1]; 1 nM): -1.75%
percent inhibition of viability ([1]; 10 nM): -1.8%
percent inhibition of viability ([1]; 100 nM): 2.89%
percent inhibition of viability ([1]; 1000 nM): 100%
percent inhibition of viability ([1]; 10000 nM): 101%
percent inhibition of viability ([2]; 1 nM): -0.06%
percent inhibition of viability ([2]; 10 nM): -8.43%
percent inhibition of viability ([2]; 100 nM): 20%
percent inhibition of viability ([2]; 1000 nM): 99.6%
percent inhibition of viability ([2]; 10000 nM): 101%
percent inhibition of viability ([3]; 1 nM): -6.84%
percent inhibition of viability ([3]; 10 nM): -2.57%
percent inhibition of viability ([3]; 100 nM): -23.3%
percent inhibition of viability ([3]; 1000 nM): 98.5%
percent inhibition of viability ([3]; 10000 nM): 100%
percent inhibition of viability ([4]; 1 nM): -3.44%
percent inhibition of viability ([4]; 10 nM): 8.97%
percent inhibition of viability ([4]; 100 nM): 69.4%
percent inhibition of viability ([4]; 1000 nM): 99.3%
percent inhibition of viability ([4]; 10000 nM): 104%
percent inhibition of viability ([5]; 1 nM): 3.43%
percent inhibition of viability ([5]; 10 nM): -0.43%
percent inhibition of viability ([5]; 100 nM): 31.6%
percent inhibition of viability ([5]; 1000 nM): 103%
percent inhibition of viability ([5]; 10000 nM): 106%
percent inhibition of viability ([6]; 1 nM): 1.2%
percent inhibition of viability ([6]; 10 nM): -10.9%
percent inhibition of viability ([6]; 100 nM): 40.2%
percent inhibition of viability ([6]; 1000 nM): 99.5%
percent inhibition of viability ([6]; 10000 nM): 104%
percent inhibition of viability ([7]; 1 nM): -0.27%
percent inhibition of viability ([7]; 10 nM): 3.87%
percent inhibition of viability ([7]; 100 nM): 33.1%
percent inhibition of viability ([7]; 1000 nM): 98.8%
percent inhibition of viability ([7]; 10000 nM): 103%
percent inhibition of viability ([8]; 1 nM): -9.8%
percent inhibition of viability ([8]; 10 nM): 1.18%
percent inhibition of viability ([8]; 100 nM): 36%
percent inhibition of viability ([8]; 1000 nM): 101%
percent inhibition of viability ([8]; 10000 nM): 109%
percent inhibition of viability ([9]; 1 nM): 16.1%
percent inhibition of viability ([9]; 10 nM): 27.2%
percent inhibition of viability ([9]; 100 nM): 40%
percent inhibition of viability ([9]; 1000 nM): 54.8%
percent inhibition of viability ([9]; 10000 nM): 50.7%
percent inhibition of viability ([10]; 1 nM): 1.4%
percent inhibition of viability ([10]; 10 nM): 6.09%
percent inhibition of viability ([10]; 100 nM): 33.3%
percent inhibition of viability ([10]; 1000 nM): 101%
percent inhibition of viability ([10]; 10000 nM): 104%
percent inhibition of viability ([11]; 1 nM): -0.02%
percent inhibition of viability ([11]; 10 nM): -24.2%
percent inhibition of viability ([11]; 100 nM): 17.8%
percent inhibition of viability ([11]; 1000 nM): 96.8%
percent inhibition of viability ([11]; 10000 nM): 97.3%
percent inhibition of viability ([12]; 1 nM): 6.48%
percent inhibition of viability ([12]; 10 nM): -25.6%
percent inhibition of viability ([12]; 100 nM): -4.81%
percent inhibition of viability ([12]; 1000 nM): 88.6%
percent inhibition of viability ([12]; 10000 nM): 91.6%
percent inhibition of viability ([13]; 1 nM): -15.2%
percent inhibition of viability ([13]; 10 nM): -10.6%
percent inhibition of viability ([13]; 100 nM): 25.6%
percent inhibition of viability ([13]; 1000 nM): 93.8%
percent inhibition of viability ([13]; 10000 nM): 95.7%
percent inhibition of viability ([14]; 1 nM): -16.4%
percent inhibition of viability ([14]; 10 nM): -9.75%
percent inhibition of viability ([14]; 100 nM): 22.2%
percent inhibition of viability ([14]; 1000 nM): 97.3%
percent inhibition of viability ([14]; 10000 nM): 98.7%
drug sensitivity score [15]: 18.4
drug sensitivity score [16]: 21.2
drug sensitivity score [17]: 16.6
drug sensitivity score [18]: 26.8
drug sensitivity score [19]: 22.6
drug sensitivity score [20]: 23.4
drug sensitivity score [21]: 22.1
drug sensitivity score [22]: 23
drug sensitivity score [23]: 18.3
drug sensitivity score [24]: 22.6
drug sensitivity score [25]: 20.4
drug sensitivity score [26]: 15.8
drug sensitivity score [27]: 21.1
drug sensitivity score [28]: 21.3

O=C(/C=C\n1cnc(-c2cc(C(F)(F)F)cc(C(F)(F)F)c2)n1)NNc1cnccn1 [Selinexor] (max concentration tested 10000 nM)
percent inhibition of viability ([1]; 1 nM): 4.95%
percent inhibition of viability ([1]; 10 nM): 27.1%
percent inhibition of viability ([1]; 100 nM): 55.3%
percent inhibition of viability ([1]; 1000 nM): 96.5%
percent inhibition of viability ([1]; 10000 nM): 101%
percent inhibition of viability ([2]; 1 nM): -2.69%
percent inhibition of viability ([2]; 10 nM): 16.9%
percent inhibition of viability ([2]; 100 nM): 59.3%
percent inhibition of viability ([2]; 1000 nM): 89.7%
percent inhibition of viability ([2]; 10000 nM): 99.2%
percent inhibition of viability ([3]; 1 nM): -4.46%
percent inhibition of viability ([3]; 10 nM): 1.62%
percent inhibition of viability ([3]; 100 nM): -10.9%
percent inhibition of viability ([3]; 1000 nM): 86.9%
percent inhibition of viability ([3]; 10000 nM): 100%
percent inhibition of viability ([4]; 1 nM): -3.28%
percent inhibition of viability ([4]; 10 nM): 4.63%
percent inhibition of viability ([4]; 100 nM): 52.6%
percent inhibition of viability ([4]; 1000 nM): 93.7%
percent inhibition of viability ([4]; 10000 nM): 106%
percent inhibition of viability ([5]; 1 nM): 0.08%
percent inhibition of viability ([5]; 10 nM): 3.04%
percent inhibition of viability ([5]; 100 nM): 35.7%
percent inhibition of viability ([5]; 1000 nM): 93.3%
percent inhibition of viability ([5]; 10000 nM): 102%
percent inhibition of viability ([6]; 1 nM): -2.59%
percent inhibition of viability ([6]; 10 nM): -2.77%
percent inhibition of viability ([6]; 100 nM): 33.9%
percent inhibition of viability ([6]; 1000 nM): 90.6%
percent inhibition of viability ([6]; 10000 nM): 101%
percent inhibition of viability ([7]; 1 nM): -3.45%
percent inhibition of viability ([7]; 10 nM): 3.74%
percent inhibition of viability ([7]; 100 nM): 39%
percent inhibition of viability ([7]; 1000 nM): 77.4%
percent inhibition of viability ([7]; 10000 nM): 95.4%
percent inhibition of viability ([8]; 1 nM): -4.23%
percent inhibition of viability ([8]; 10 nM): 11%
percent inhibition of viability ([8]; 100 nM): 42.8%
percent inhibition of viability ([8]; 1000 nM): 76.3%
percent inhibition of viability ([8]; 10000 nM): 87.8%
percent inhibition of viability ([9]; 1 nM): -0.01%
percent inhibition of viability ([9]; 10 nM): 17.6%
percent inhibition of viability ([9]; 100 nM): 63.9%
percent inhibition of viability ([9]; 1000 nM): 81.6%
percent inhibition of viability ([9]; 10000 nM): 93.4%
percent inhibition of viability ([10]; 1 nM): 3.93%
percent inhibition of viability ([10]; 10 nM): 13.2%
percent inhibition of viability ([10]; 100 nM): 61.2%
percent inhibition of viability ([10]; 1000 nM): 91.8%
percent inhibition of viability ([10]; 10000 nM): 104%
percent inhibition of viability ([11]; 1 nM): 3.58%
percent inhibition of viability ([11]; 10 nM): 9.52%
percent inhibition of viability ([11]; 100 nM): 57.5%
percent inhibition of viability ([11]; 1000 nM): 87.9%
percent inhibition of viability ([11]; 10000 nM): 98.6%
percent inhibition of viability ([12]; 1 nM): -3.27%
percent inhibition of viability ([12]; 10 nM): 25.6%
percent inhibition of viability ([12]; 100 nM): 77.9%
percent inhibition of viability ([12]; 1000 nM): 87.5%
percent inhibition of viability ([12]; 10000 nM): 93.1%
percent inhibition of viability ([13]; 1 nM): -5.72%
percent inhibition of viability ([13]; 10 nM): 14.1%
percent inhibition of viability ([13]; 100 nM): 65.8%
percent inhibition of viability ([13]; 1000 nM): 89.2%
percent inhibition of viability ([13]; 10000 nM): 97.1%
percent inhibition of viability ([14]; 1 nM): -6.17%
percent inhibition of viability ([14]; 10 nM): 1.79%
percent inhibition of viability ([14]; 100 nM): 59.1%
percent inhibition of viability ([14]; 1000 nM): 88.1%
percent inhibition of viability ([14]; 10000 nM): 99.8%
drug sensitivity score [15]: 25.9
drug sensitivity score [16]: 25
drug sensitivity score [17]: 15.5
drug sensitivity score [18]: 23.9
drug sensitivity score [19]: 21.3
drug sensitivity score [20]: 20.8
drug sensitivity score [21]: 19.4
drug sensitivity score [22]: 19.9
drug sensitivity score [23]: 25.1
drug sensitivity score [24]: 25.4
drug sensitivity score [25]: 24.1
drug sensitivity score [26]: 29
drug sensitivity score [27]: 26
drug sensitivity score [28]: 24.6
